The test system of this test is mugineic acid-Fe complex transporter HvYS1. The test can be described thus: Iron uptake activity: electrophysiological measurement of intracellular uptake of mugineic acid-Fe complex in oocytes expressing the transporter. The conditions noted are these: substrate-Fe complex final concentration 50 μM; African clawed frog oocytes expressing HvYS1; natural mugineic acid set to 100%; FIG. 1. Type of test: cell-based, barley. The source says:
Concerning the S isomer (natural form) and R isomer of 2′-OH obtained in Example 12, 2′-deoxy isomer obtained in Example 9, and mugineic acid purified from barley by the method described in “Takagi, S. et al., Journal of Plant Nutrition, 1984, 7th volume, p 469-477”, it was verified that the intracellular uptake of iron complex thereof actually takes place via the mugineic acid-Fe complex transporter. According to the method described in “Murata, Y. et al., Plant Journal (Plant J), 2006, 46th volume, p. 563-572.”, the gene HvYS1 gene which codes the mugineic acid-Fe complex transporter of barley (Plant J. 2006, vol. 46, 563-572) was introduced into the oocytes of the African clawed frog. […] The intracellular uptake of mugineic acid-Fe complex was measured using Oocyte clamp OC-725C (Warner Instrument) by the detection of electrochemical signal. More specifically, the oocyte which expressed the mugineic acid-Fe complex transporter HvYS1 was set to the chamber filled with ND-96 solution, 10 μl of a 5 mM substrate-Fe complex solution (final concentration 50 μM) was sprinkled on the oocyte and the electrical physiological activity was measured. The oocyte was plugged with 2 microelectrodes filled with 3M KCl, and with the mode in which the electric potential of the experimental tank was fixed at 0 V, the current value changing at a fixed electrical potential, […], was measured. […]

One molecule from US20100256395A1, “EFFICIENT METHOD FOR PRODUCING MUGINEIC ACIDS” (SUNTORY HOLDINGS LIMITED, priority 2006, published 2010) can be followed below.

For the molecule `O=C(O)[C@@H](NCC[C@H](O)C(=O)O)[C@@H](O)CN1CC[C@H]1C(=O)O` [natural mugineic acid, mugineic acid], the “size of the current value (electrical physiological activity), relative value to natural mugineic acid” value is recorded as 100%.
